According to patent US20250215029A1 (Recludix Pharma, Inc., priority 2022, published 2025):
Where two headings read alike, the source gives them in different places.

Legend:
[1] = target: T1, Recombinant STAT3 protein (STAT3 (G127-I722)) (Homo sapiens, UniProt P40763); test: STAT3 Fluorescence Polarization (FP) Assay; type: binding; details: probe 5-FAM-GpYLPQTV-NH2 2 nM, 45-minute incubation
T1 construct: Recombinant STAT3 protein (STAT3 (G127-I722))
Summary of the method: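 In this competition FP format, STAT3 residues G127-I722 (25 nM) and 2 nM 5-FAM-GpYLPQTV-NH2 met test compounds for 45 min at room temperature. IC50 values result from fitting mP signal against log concentration by nonlinear regression.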

[2] = target: T2, Recombinant STAT6 protein (STAT6 (W123-T658)) (Homo sapiens, UniProt P42226); test: STAT6 Fluorescence Polarization (FP) Assay; type: binding; details: 45-minute incubation
T2 construct: Recombinant STAT6 protein (STAT6 (W123-T658))
T2 sequence (P42226 123-658): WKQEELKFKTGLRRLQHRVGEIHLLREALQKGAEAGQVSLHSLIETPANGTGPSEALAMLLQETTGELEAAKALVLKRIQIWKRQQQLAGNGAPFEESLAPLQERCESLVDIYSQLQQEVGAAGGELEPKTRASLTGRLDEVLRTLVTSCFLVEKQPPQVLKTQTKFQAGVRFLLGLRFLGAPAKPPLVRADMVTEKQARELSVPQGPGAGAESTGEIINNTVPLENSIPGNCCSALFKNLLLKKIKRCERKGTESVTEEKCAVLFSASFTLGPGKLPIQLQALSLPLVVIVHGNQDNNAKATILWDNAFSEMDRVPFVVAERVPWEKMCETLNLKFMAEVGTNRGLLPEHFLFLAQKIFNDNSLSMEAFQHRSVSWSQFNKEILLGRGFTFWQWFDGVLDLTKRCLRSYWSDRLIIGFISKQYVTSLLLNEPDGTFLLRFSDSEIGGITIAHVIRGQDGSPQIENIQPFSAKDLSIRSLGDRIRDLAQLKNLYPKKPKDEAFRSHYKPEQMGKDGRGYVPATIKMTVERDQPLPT
Summary of the method: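 Fluorescence polarization (mP) read-out: 250 nM STAT6 (W123-T658) plus 2 nM 5-FAM phosphotyrosine peptide, 45 min, room temperature, 1% DMSO. IC50 by nonlinear fit of mP against log compound concentration.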

[3] = STAT3 (G127-I722) 25 nM, read-out: STAT3 (FP assay IC50 class)
[4] = STAT6 (W123-T658) 250 nM, probe 5-FAM-Ap[…]-NH2 2 nM, read-out: STAT6 (FP assay IC50 class)
[5] = STAT3 25 nM, read-out: STAT3 (FP assay IC50)
[6] = STAT6 250 nM, probe 5-FAM-Ap[…]-NH2 2 nM, read-out: STAT6 (FP assay IC50)

T1 sequence (P40763 127-722): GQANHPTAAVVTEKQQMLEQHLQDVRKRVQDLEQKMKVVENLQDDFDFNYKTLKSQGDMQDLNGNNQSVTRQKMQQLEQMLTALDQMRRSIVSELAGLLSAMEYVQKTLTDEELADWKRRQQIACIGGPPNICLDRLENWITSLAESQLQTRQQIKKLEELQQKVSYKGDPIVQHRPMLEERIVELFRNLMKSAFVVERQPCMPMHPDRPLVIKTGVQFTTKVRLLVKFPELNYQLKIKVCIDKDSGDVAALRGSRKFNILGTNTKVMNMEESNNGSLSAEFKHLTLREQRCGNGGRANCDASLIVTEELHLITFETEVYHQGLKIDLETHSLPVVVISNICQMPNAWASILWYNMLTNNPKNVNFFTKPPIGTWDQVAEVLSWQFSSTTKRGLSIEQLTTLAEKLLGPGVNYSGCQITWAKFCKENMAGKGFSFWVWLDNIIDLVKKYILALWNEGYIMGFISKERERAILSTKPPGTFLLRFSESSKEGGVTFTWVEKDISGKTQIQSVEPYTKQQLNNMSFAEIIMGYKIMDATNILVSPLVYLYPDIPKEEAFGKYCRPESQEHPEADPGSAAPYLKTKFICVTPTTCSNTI

IC50 [1, 3]	IC50 [2, 4]	IC50 [1, 5]	IC50 [2, 6]	IC50 ([2]; STAT6 (W123-T658) 250 nM, probe 5-FAM-ApYKPFQDLI-NH2 2 nM, read-out: STAT6 (FP assay IC50 class))	Compound
< 100 nM	3 to 30 µM				CS(=O)(=O)CC1CN(C(=O)[C@@H]2CC[C@@H]3CCC[C@H](NC(=O)c4cc5cc(C(F)(F)P(=O)(O)O)ccc5s4)C(=O)N32)C1 [Compound 790, (difluoro(2-(((3S,6S,9aS)-3-(3-((methylsulfonyl)methyl)azetidine-1-carbonyl)-5-oxooctahydro-1H-pyrrolo[1,2-a]azepin-6-yl)carbamoyl)benzo [b]thiophen-5-yl)methyl) phosphonic acid]
		100 to 1000 nM	0.3 to 3 µM		O=C(N[C@H]1CCCC[C@H]2CC[C@@H](C(=O)N3CCN(C(=O)c4cn[nH]c4)CC3)N2C1=O)c1cc2cc(C(F)(F)P(=O)(O)O)ccc2s1 [Compound 118B, ((2-(((3S,6S,10a S)-3-(4-(1H-pyrazole-4-carbonyl)piperazine-1-carbonyl)-5-oxodecahydro-pyrrolo [1,2-a]azocin-6-yl)carbamoyl)benzo[b]thiophen-5-yl)difluoromethyl) phosphonic acid]
< 100 nM	0.3 to 3 µM				N#CC1(c2ccccn2)CN(C(=O)[C@@H]2CC[C@@H]3CCC[C@H](NC(=O)c4cc5cc(C(F)(F)P(=O)(O)O)ccc5s4)C(=O)N32)C1 [Compound 776, ((2-(((3S,6S,9aS)-3-(3-cyano-3-(pyridin-2-yl)azetidine-1-carbonyl)-5-oxooctahydro-1H-pyrrolo[1,2-a]azepin-6-yl)carbamoyl)benzo [b]thiophen-5-yl)difluoromethyl) phosphonic acid]
1000 to 10000 nM	3 to 30 µM				COC1(c2nccn2C)CN(C(=O)[C@@H]2CC[C@@H]3CCC4(CC4)C[C@H](NC(=O)c4ccc5ccc(C(F)(F)P(=O)(O)O)cc5c4)C(=O)N32)C1 [Compound 215, (difluoro(7-(((3′S,6′S,10a′S)-3′-(3-methoxy-3-(1-methyl-1H-imidazol-2-yl)azetidine-1-carbonyl)-5′-oxooctahydro-5′H-spiro[cyclopropane-1,8′-pyrrolo[1,2-a]azocin]-6′-yl)carbamoyl)naphthalen-2-yl)methyl)phosphonic acid]
> 10000 nM	3 to 30 µM				O=C(N[C@H]1CCC[C@H]2CC[C@@H](C(=O)N3CC(c4cccnc4)C3)N2C1=O)c1cc2cc(CP(=O)(O)O)c(F)cc2[nH]1 [Compound 864, ((6-fluoro-2-(((3S,6S,9aS)-5-oxo-3-(3-(pyridin-3-yl)azetidine-1-carbonyl)octahydro-1H-pyrrolo[1,2-a]azepin-6-yl)carbamoyl)-1H-indol-5-yl)methyl) phosphonic acid]
1000 to 10000 nM	0.3 to 3 µM				O=C(N[C@H]1CCCC[C@H]2CC[C@@H](C(=O)NC3CN(C(=O)OC4CC4)C3)N2C1=O)c1cc2cc(C(F)P(=O)(O)O)ccc2s1 (stereo partly drawn) [Compound 528, ((2-(((3S,6S,10aS)-3-((1-(cyclopropoxycarbonyl)azetidin-3-yl)carbamoyl)-5-oxodecahydropyrrolo[1,2-a]azocin-6-yl)carbamoyl)benzo[b]thiophen-5-yl)fluoromethyl)phosphonic acid]
100 to 1000 nM	3 to 30 µM				O=C(N[C@H]1CC2(CC[C@H]3CC[C@@H](C(=O)N4CC(c5cccnc5)C4)N3C1=O)CC2)c1cc2cc(CP(=O)(O)O)ccc2s1 [Compound 216, ((2-(((3′S,6′S,10a′S)-5′-oxo-3′-(3-(pyridin-3-yl)azetidine-1-carbonyl)octahydro-5′H-spiro[cyclopropane-1,8′-pyrrolo[1,2-a]azocin]-6′-yl)carbamoyl)benzo[b]thiophen-5-yl)methyl)phosphonic acid]
100 to 1000 nM	≤ 0.3 µM				N#C[C@H]1CN(C(=O)[C@@H]2CC[C@@H]3CCCC[C@H](NC(=O)c4cc5cc(C(F)(F)P(=O)(O)O)ccc5s4)C(=O)N32)C[C@@H]1c1cc[nH]c(=O)c1 (single isomer, unassigned) [Compound 875]
100 to 1000 nM	0.3 to 3 µM				Cn1cc(C2CN(C(=O)[C@@H]3CC[C@@H]4CCC[C@H](NC(=O)c5cc6cc(C(F)P(=O)(O)O)ccc6s5)C(=O)N43)C2)c(C#N)n1 (stereo partly drawn) [Compound 734, ((2-(((3S,6S,9aS)-3-(3-(3-cyano-1-methyl-1H-pyrazol-4-yl)azetidine-1-carbonyl)-5-oxooctahydro-1H-pyrrolo[1,2-a]azepin-6-yl)carbamoyl)benzo [b]thiophen-5-yl)fluoromethyl) phosphonic acid]
100 to 1000 nM	3 to 30 µM				CC(O)C1(c2ccccc2)CN(C(=O)[C@@H]2CC[C@@H]3CCCC[C@H](NC(=O)c4cc5cc(C(F)(F)P(=O)(O)O)ccc5s4)C(=O)N32)C1 (stereo partly drawn) [Compound 495, (difluoro(2-(((3S,6S,10aS)-3-(3-(1-hydroxyethyl)-3-phenylazetidine-1-carbonyl)-5-oxodecahydropyrrolo[1,2-a]azocin-6-yl)carbamoyl)benzo[b]thiophen-5-yl)methyl)phosphonic acid]
< 100 nM	0.3 to 3 µM				CC1(c2ccccn2)CN(C(=O)[C@@H]2CC[C@@H]3CCC[C@H](NC(=O)c4cc5cc(C(F)(F)P(=O)(O)O)ccc5s4)C(=O)N32)C1 [Compound 547, (difluoro(2-(((3S,6S,9aS)-3-(3-methyl-3-(pyridin-2-yl)azetidine-1-carbonyl)-5-oxooctahydro-1H-pyrrolo[1,2-a]azepin-6-yl)carbamoyl)benzo[b]thiophen-5-yl)methyl)phosphonic acid]
1000 to 10000 nM	0.3 to 3 µM				CC1(C)CC(c2ccccc2)CN1C(=O)[C@@H]1CC[C@@H]2CCCC[C@H](NC(=O)c3cc4cc(C(F)(F)P(=O)(O)O)ccc4s3)C(=O)N21 (stereo partly drawn) [Compound 813, ((2-(((3S,6S,10aS)-3-(2,2-dimethyl-4-phenylpyrrolidine-1-carbonyl)-5-oxodecahydropyrrolo [1,2-a]azocin-6-yl)carbamoyl)benzo [b]thiophen-5-yl)difluoromethyl) phosphonic acid]
1000 to 10000 nM	3 to 30 µM				O=C(N[C@H]1CCC[C@H]2CC[C@@H](C(=O)N3CC(c4ccnc(N5CCOCC5)c4)C3)N2C1=O)c1cc2cc([C@@H](F)P(=O)(O)O)ccc2s1 (single isomer, unassigned) [Compound 712]
< 100 nM	3 to 30 µM				O=C(N[C@H]1CCC[C@H]2CC[C@@H](C(=O)N3CC(c4cnccc4N4CC[C@@H]4C(F)F)C3)N2C1=O)c1cc2cc(CP(=O)(O)O)ccc2s1 [Compound 668, ((2-(((3S,6S,9aS)-3-(3-(4-((R)-2-(difluoromethyl)azetidin-1-yl)pyridin-3-yl)azetidine-1-carbonyl)-5-oxooctahydro-1H-pyrrolo[1,2-a]azepin-6-yl)carbamoyl)benzo [b]thiophen-5-yl)methyl) phosphonic acid]
		< 100 nM	0.3 to 3 µM		C#Cc1ncoc1C1CN(C(=O)[C@@H]2CC[C@@H]3CCCC[C@H](NC(=O)c4cc5cc(C(F)(F)P(=O)(O)O)ccc5s4)C(=O)N32)C1 [Compound 64, ((2-(((3S,6S,10aS)-3-(3-(4-ethynyloxazol-5-yl)azetidine-1-carbonyl)-5-oxodecahydropyrrolo [1,2-a]azocin-6-yl)carbamoyl)benzo[b]thiophen-5-yl)difluoromethyl) phosphonic acid]
1000 to 10000 nM				≤ 0.3 µM	N#C[C@@H]1[C@@H](c2cccnc2)CN(C(=O)[C@@H]2CC[C@@H]3CCCC[C@H](NC(=O)c4cc5cc([C@H](F)P(=O)(O)O)ccc5s4)C(=O)N32)C12CC2 (single isomer, unassigned) [Compound 840]
100 to 1000 nM	3 to 30 µM				CC(C)C1(c2ccccc2)CN(C(=O)[C@@H]2CC[C@@H]3CCC[C@H](NC(=O)c4cc5cc(C(F)(F)P(=O)(O)O)ccc5s4)C(=O)N32)C1 [Compound 784, (difluoro(2-(((3S,6S,9aS)-3-(3-isopropyl-3-phenylazetidine-1-carbonyl)-5-oxooctahydro-1H-pyrrolo[1,2-a]azepin-6-yl)carbamoyl)benzo [b]thiophen-5-yl)methyl) phosphonic acid]
		< 100 nM	0.3 to 3 µM		O=C(N[C@H]1CC[C@H](O)C[C@H]2CC[C@@H](C(=O)N3CC(n4ccnc4)C3)N2C1=O)c1cc2cc(C(F)(F)P(=O)(O)O)ccc2s1 [Compound 15, ((2-(((3S,6S,9S,10aR)-3-(3-(1H-imidazol-1-yl)azetidine-1-carbonyl)-9-hydroxy-5-oxodecahydropyrrolo [1,2-a]azocin-6-yl)carbamoyl)benzo[b]thiophen-5-yl)difluoromethyl) phosphonic acid]
